Laboratory results published in patent publication US5227466A, “Insulin receptor binding site” (City of Hope, priority 1988, dated 1993).
Where a SMILES comes first, the peptide text is derived from it.

Target: ^125 I-insulin (Homo sapiens, UniProt P01308)
Experiment: 125I-insulin binding to water suspension of the peptide, centrifugation
Description: To test for insulin binding, a water suspension of the peptide was incubated at room temperature with a tracer of ^125 I-insulin followed by simple centrifugation. […] The apparent dissociation constant was ~6×10^-7 M. Non-specific binding was negligible.

Sequence of ^125 I-insulin (P01308 25-54 limits assumed): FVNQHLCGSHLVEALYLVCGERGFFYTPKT
Sequence of ^125 I-insulin (P01308 90-110 limits assumed): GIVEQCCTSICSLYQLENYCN

For `CC[C@H](C)[C@H](NC(=O)[C@@H](NC(=O)[C@H](CC(C)C)NC(=O)[C@H](C)NC(=O)[C@H](Cc1ccc(O)cc1)NC(=O)[C@H](CC(N)=O)NC(=O)[C@H](Cc1ccccc1)NC(=O)[C@H](Cc1ccccc1)NC(=O)[C@H](CC(C)C)NC(=O)[C@@H](N)CCCNC(=N)N)C(C)C)C(=O)N[C@@H](Cc1ccccc1)C(=O)N[C@@H](CCC(=O)O)C(=O)N[C@@H](CCSC)C(=O)N[C@H](C(=O)N[C@@H](Cc1c[nH]cn1)C(=O)N[C@@H](CC(C)C)C(=O)N[C@@H](CCCCN)C(=O)N[C@@H](CCC(=O)O)C(=O)O)C(C)C` [Sequence I] (H-RLFFNYALVIFEMVHLKE-OH), the Kd (displacement of ^125 I-insulin by unlabelled insulin (FIG. 4), read-out: apparent dissociation constant) was roughly 600 nM and the “fraction of ^125 I-insulin tracer bound by the peptide” value (water suspension of the peptide, room temperature, centrifugation) was “up to 30%”.
